Laboratory results taken from article PMC5656322, “BAK1 is involved in AtRALF1-induced inhibition of root cell expansion” (PLoS Genetics, 2017).
Where no end group is shown, it is not given here.

Columns and labels:
[1] = tested on: Arabidopsis seedlings, primary root; experiment: Root growth inhibition assay, liquid medium, 24-well plates; type: in vivo, Arabidopsis thaliana; details: 10 μM, 2 days
Experimental: (A) and (B) Arabidopsis seedlings (2 days old) were treated with 10 μM AtRALF1 or water (H20) for 2 days. The values are the mean ± SD of at least 25 seedlings. Triple asterisks indicate P < 0.01 (Student’s t test); ns, not significant. (C) Four-day-old seedlings were transferred to media containing different concentrations of AtRALF1, and the primary root length was measured after 8 days of treatment. The data represent the mean value ± SD of 30 seedlings. […] Representative Arabidopsis seedlings after 8 days of treatment with AtRALF1 are shown below. Seedlings were arranged on plates after the treatment for imaging. Scale bars, 1 cm. (D) Two-day-old seedlings were treated with 10 μM AtRALF1 or water for 2 days, and root cell length was measured after 2 days of treatment. Cells from the root endodermis in the differentiation zone were measured. The values are the mean ± SD of approximately 150 cells. Triple asterisks indicate P < 0.01 (Student’s t test); ns, not significant.
Aliquots of 1 ml of medium containing seeds were distributed into 24-well plates. The peptides (10 μM) were added after 2 days, and the root length was measured 2 days after treatment. To maximize root growth, the seeds were germinated in vertical plates. […] The root length was measured 8 days after treatment unless stated otherwise. Control plants were grown under identical conditions in a peptide-free medium. Quantitative data were obtained as previously described. The experiments were repeated at least 3 times using independent biological replicates with similar results. The data from one representative experiment are shown. For cell length measurements, AtRALF1 peptide (10 μM) was added after 2 days of germination, and the cell length was measured after 2 days of treatment. The cell wall was stained with a 1 mg ml^-1 propidium iodide solution (Sigma) in the dark for 15 min and washed twice with water. Cells of the endodermis of the root differentiation zone were imaged and measured using confocal microscopy (Olympus FV1000). Approximately 30 plants from each genetic background and at least 5 cells per root were measured. The wavelengths for excitation and emission were 555 and 655 nm, respectively. Image processing was completed using the Olympus FluoView software.
Arabidopsis seedlings (2-days-old) were treated with 10 μM AtRALF1 or water (H20) for 2 days. The values are the mean ± SD of at least 25 seedlings. Triple asterisks indicate P < 0.01 (Student’s t test); ns, not significant. (PDF) Click here for additional data file.
Supplementary file pgen.1007053.s002.pdf: S2 Fig Loss-of-function bak1 mutants are sensitive to the inhibitory activity of AtRALF23/34 on root growth. Arabidopsis seedlings (2-day-old) were treated with 10 μM RALF1(9–49), RALF1(I6A), AtRALF1, AtRALF23 and AtRALF34 or water (H20) for 2 days. The values are the mean ± SD of at least 20 seedlings. […] (PDF) Click here for additional data file.

[2] = tested on: intact Arabidopsis seedlings; experiment: Binding assay with acridinium-labeled AtRALF1, intact seedlings; set-up: species or system Arabidopsis thaliana; details: for competition of acriAtRALF1 binding: 10-fold excess of unlabeled peptide
Experimental: (A) Whole seedlings (5 days old) were treated for 15 min with acriAtRALF1 (acriR1), acriR1 and an excess of unlabeled AtRALF34 (R34), RALF1(9–49) [(R-9-49)], or AtRALF1 (R1), as indicated. The values are the mean ± SD of two measurements (5 seedlings each). (B) Microsomal fractions from wild-type and bak1 mutants were incubated for 15 min with acriAtRALF1 (acriR1), with acriR1 and an excess of unlabeled RALF1(9–49) [(R-9-49)], or with AtRALF1 (R1), as indicated. The values are the mean ± SD of two measurements. The proportions of labeled: unlabeled proteins are shown in parentheses. Single and triple asterisks indicate P < 0.1 and P < 0.01 (Student’s t test).
Arabidopsis seedlings were grown for 5 days on vertical plates. Roots were homogenized in extraction buffer [300 mM sucrose, 100 mM Tris-HCl pH 7.5, 25 mM EDTA, 25 mM NaF, 1 mM Na2MoO4, 1 mM PMSF and protease inhibitor cocktail (Roche), adjusted to pH 6.2], and the homogenate was spun at 2,000 x g for 10 min at 4 °C. The supernatant was recovered and centrifuged at 100,000 x g for 50 min at 4 °C to precipitate the microsomal pellet. The pellet was resuspended in the extraction buffer plus 0.5% Triton-X. Seedlings or microsomal fractions were placed in 200 μl of medium and incubated with 7 nM acridinium-labeled peptide (acriAtRALF1 or acriAtRALF34) and different concentrations of AtRALF1, AtRALF34 or RALF1(9–49) for 15–20 min at 4 °C on a shaker. After incubation, the seedlings or microsomal fractions were washed three times with the same medium. Unless indicated otherwise, five entire seedlings and approximately 10 ng of microsomal fractions were used per treatment. The resulting luminescence emissions from the acridinium were measured using a microplate reader (Biotec ELx 800) at 2 s after injecting 50 μl of a solution containing 20 mM H2O2 in 0.1 M NaOH. These experiments were repeated at least three times using independent biological replicates. Duplicates were used for each concentration or treatment. The data shown are from one representative experiment.
Supplementary file pgen.1007053.s017.pdf: S17 Fig Analyses of acridinium-labeled AtRALF1 (acriAtRALF1) and binding of acriAtRALF1 in bak1-4 and fer4 mutants. (A) The Ca^2+ mobilization assay comparing the acriAtRALF1 activity with the AtRALF1 peptide. A total of 20 time-points per treatment were measured over 160 sec and summed. The results are the means ± SD of two measurements. (B) acriAtRALF1 binding in whole seedlings and only in roots of Arabidopsis. The roots were excised just before measurements. Ctr, seedlings treated with unlabeled AtRALF1. (C) Whole seedlings (5 days old) were treated for 20 min with acriAtRALF1 (acriR1), acriR1 and an excess of unlabeled AtRALF1 (R1), as indicated. The values are the mean ± SD of three measurements (5 seedlings each). The proportions of labeled: unlabeled proteins are shown in parentheses. Triple asterisks indicates P < 0.001 (Student’s t test). (PDF) Click here for additional data file.
Supplementary file pgen.1007053.s018.pdf: S18 Fig Binding of acridinium-labeled AtRALF1 and AtRALF34 to intact Arabidopsis seedlings. (A) bak7 seedlings (5 days old) were treated for 15 min with acriAtRALF1 (acriR1), acriR1 and an excess of unlabeled AtRALF1 (R1), as indicated. (B) bak1 seedlings (5 days old) were treated for 15 min with acriAtRALF34 (acriR34), acriR34 and an excess of unlabeled AtRALF34 (R34) or AtRALF1 (R1), as indicated. The proportions of labeled: unlabeled proteins are shown in parentheses. The values are the mean ± SD of two measurements (5 seedlings each). (PDF) Click here for additional data file.

| Substance | root growth inhibition ([1]; bak1-1 and bak1-3 mutants) | sensitivity to root growth inhibition ([1]; bak1-4 complemented with pBAK1:BAK1) | root growth inhibition ([1]; bri1-301, bsk3-2, sud1, bes1-D, bzr1-D, BRI OX, DWF4 OX lines) | sensitivity to root growth inhibition ([1]; loss-of-function bak1 mutants (bak1-4)) | root growth inhibition ([1]; serk1, serk2, serk4 (bak7), serk5 (bak8) mutants) | reduction of acriAtRALF1 binding ([2]; bak1-1, 10-fold excess of AtRALF1) | acriAtRALF1 binding reduced to ([2]; bak1-1, 100- or 500-fold excess of AtRALF1) | reduction of acriAtRALF1 binding ([2]; bak1-3, 10-fold excess of AtRALF1) | acriAtRALF1 binding reduced to ([2]; bak1-3, 100- or 500-fold excess of AtRALF1) | reduction of acriAtRALF1 binding ([2]; bak1-4, 10-fold excess of AtRALF1) | acriAtRALF1 binding reduced to ([2]; bak1-4, 100- or 500-fold excess of AtRALF1) | share of AtRALF1 binding due to BAK1 ([2]; intact roots) | reduction of acriAtRALF1 binding ([2]; wild-type seedlings, 10-fold excess of unlabeled AtRALF1) | reduction of acriAtRALF1 binding ([2]; wild-type seedlings, 100-fold excess of AtRALF1, printed "up to") | further reduction of acriAtRALF1 binding ([2]; wild-type seedlings, 500-fold excess of AtRALF1) | activity of negative control peptides on root growth [1] | competition of acriAtRALF1 binding ([2]; bak1 mutants) | competition of acriAtRALF1 binding ([2]; wild-type seedlings, 7 nM acriAtRALF1, 15 min, 4 °C) |
| --- | --- | --- | --- | --- | --- | --- | --- | --- | --- | --- | --- | --- | --- | --- | --- | --- | --- | --- |
| AtRALF1: root-specific RALF isoform in Arabidopsis; recombinant peptide hormone produced in E. coli (ATTKYISYQSLKRNSVPCSRRGASYYNCQNGAQANPYSRGCSKIARCRS; ends and bridges not checked; cysteine pairing not given here) | exhibited no effect | recovered the sensitivity to the inhibitory effect of AtRALF1 treatment | exhibited root growth inhibition by AtRALF1 | insensitive to the inhibitory activity of AtRALF1 on root growth | inhibited the root growth | approximately 32% | 54% | ~35% | 63% | ~33% | 61% | approximately 30% | 24% | 59% | No further reduction was observed | – | – | – |
| RALF1(9–49): inactive AtRALF1 peptide which has a deletion of the first 8 amino acids (QSLKRNSVPCSRRGASYYNCQNGAQANPYSRGCSKIARCRS; ends and bridges not checked; cysteine pairing not given here; UniProt Q9SRY3 80-120, looked up, fragment) | – | – | – | – | – | – | – | – | – | – | – | – | – | – | – | inactive | did not reduce the binding in the mutant backgrounds | could not be competed out |
